In patent US11690837B2, “Methods of improving cell-based therapy” (THE REGENTS OF THE UNIVERSITY OF CALIFORNIA, priority 2014, dated 2023):

Experiments:
[1] = target: T1, sEH (Homo sapiens, UniProt P34913); experiment: Testing as sEH inhibitors (method not described); type: biochemical
T1 sequence (P34913 1-555): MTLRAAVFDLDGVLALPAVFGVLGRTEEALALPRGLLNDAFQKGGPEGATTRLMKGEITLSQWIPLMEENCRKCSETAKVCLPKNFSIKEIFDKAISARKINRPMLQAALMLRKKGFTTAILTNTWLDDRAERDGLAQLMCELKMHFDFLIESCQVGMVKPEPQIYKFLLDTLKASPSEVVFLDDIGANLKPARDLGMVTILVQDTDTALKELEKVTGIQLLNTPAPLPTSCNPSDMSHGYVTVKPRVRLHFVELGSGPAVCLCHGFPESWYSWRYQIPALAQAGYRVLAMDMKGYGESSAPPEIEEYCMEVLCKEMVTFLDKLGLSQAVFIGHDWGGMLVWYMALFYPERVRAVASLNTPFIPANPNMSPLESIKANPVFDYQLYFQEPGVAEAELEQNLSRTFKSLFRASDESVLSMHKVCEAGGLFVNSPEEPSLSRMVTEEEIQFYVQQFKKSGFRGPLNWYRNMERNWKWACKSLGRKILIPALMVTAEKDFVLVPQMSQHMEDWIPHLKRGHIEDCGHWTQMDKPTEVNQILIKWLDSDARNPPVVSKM
Text: (§1) (Both the 1- and the 2-admamantyl ureas have been tested and have about the same high activity as an inhibitor of sEH. Thus, isomers of adamantyl dodecyl urea are preferred inhibitors. It is further expected that N, N′-dodecyl-cyclohexyl urea (DCU), and other inhibitors of sEH, and particularly dodecanoic acid ester derivatives of urea, are suitable for use in the methods. Preferred inhibitors include:
U.S. Pat. No. 5,955,496 (the '496 patent) also sets forth a number of sEH inhibitors which can be used in the methods. One category of these inhibitors comprises inhibitors that mimic the substrate for the enzyme. The lipid alkoxides (e.g., the 9-methoxide of stearic acid) are an exemplar of this group of inhibitors.

[2] = type: in vitro ADME
Text: as §1, with “include: […]” for “include:”

activity as an inhibitor of sEH [1]: particularly high activity | metabolic stability [2]: metabolically stable
SMILES: CCCCCCCCCCCCNC(=O)NC12CC3CC(CC(C3)C1)C2 [ADU, N-Adamantyl-N′-dodecyl urea]
